From patent publication US9423343B2, “Membrane potential change detection device and membrane potential change detection method” (HAMAMATSU PHOTONICS K.K., priority 2010, dated 2016)

Tested on: CHO cells
Test: Reflection interference measurement of membrane potential change (depolarization) after KCl dispensation, Measurement Example 1
Type: cell-based, Chinese hamster
Conditions: for change rate of average luminosity at the peak: peak slightly over five minutes, FIG. 11
Source text: The functions and operation of the processing unit 20 will be described further referring to the flowchart of FIG. 7. First, the reflection interference image of adhesion faces of cells 101 is obtained by the reflection interference detection camera 110 (step S101, corresponding to “reflection interference imaging step” in the scope of claims). The amplitude of interfering light differs according to the distance of each cell 101 adhering onto the substrate as the bottom surface of the vessel 102 from the substrate as the bottom surface of the vessel 102, and the reflection interference image is taken as a contrast of bright and dark patterns. Next, correction is made for shading of reflected light in the field of the reflection interference image. In addition, an offset correction for background part is carried out in each time unit, so as to prevent temporal variation in value of the background without the cells 101. Through these image arithmetic corrections, we can obtain the reflection interference image with little spatial and temporal variation.
The reflection interference detection camera 110 acquires reflection interference images, for example, at intervals of one second. The intervals of acquisition of reflection interference images are preferably suitably controlled according to a rate of change of membrane potential of the cells 101. After a fixed time from a start of acquisition of image by the reflection interference detection camera 110, a chemical dispensing operation of the dispenser 117 is performed to dispense an intended chemical in an intended concentration to the solution in which the cells 101 are immersed.
The analysis unit 202 calculates a parameter about adhesion between each cell 101 and the transparent member 102a using the reflection interference images obtained intermittently in this manner (step S102, corresponding to “analysis step” in the scope of claims). In the present embodiment, the analysis unit calculates a “change rate of average luminosity” as the parameter to evaluate the change of membrane potential of cell 101 (corresponding to “parameter about adhesion” in the scope of claims).
When the image reception unit 201 receives the reflection interference images sequentially output from the reflection interference detection camera 110, the analysis unit 202 calculates the average luminosity I(t) of the measurement region in each of the reflection interference images and calculates a change rate dI relative to an average luminosity of the measurement region acquired in advance before chemical dispensation (which will be referred to hereinafter as average luminosity I(base) as a base”) (step S103, corresponding to “analysis step” in the scope of claims). […] The change rate dI is calculated by the formula below. […]
The analysis unit 202 detects a change of membrane potential of the cells 101 on the basis of the change rate dI calculated by the above formula. Namely, when a predetermined change rate dI is calculated, the analysis unit 202 makes such a valuation that there is some change detected in membrane potential in the cells 101. The analysis unit 202 may output a plot along time axis of the change rate dI (%) relative to the average luminosity before chemical dispensation calculated by the above formula, e.g., graphs as shown in (A) of FIGS. 8 and (B) of FIG. 8. […]

## [Cl-].[K+] [KCl, potassium chloride]
KCl concentration 6.25 mM
  change rate of average luminosity at the peak: +8%
KCl concentration 25 mM
  change rate of average luminosity at the peak: +35%
KCl concentration 50 mM
  change rate of average luminosity at the peak: +55%
KCl concentration 100 mM
  change rate of average luminosity at the peak: +95%
Image at 5 minutes after dispensation, FIG. 9
  change of reflection interference image after dispensation: the CHO cells departed from the transparent member on which the cells were laid, to make the reflection interference image brighter
